These results are taken from publication PMC2928300, “Transcriptional Regulation of Human and Rat Hepatic Lipid Metabolism by the Grapefruit Flavonoid Naringenin: Role of PPARα, PPARγ and LXRα” (PLoS ONE, 2010).

Experiment [1] has as its target T1, LXRα (Homo sapiens, UniProt Q13133).
T1 construct: gene NR1H3
T1 sequence (Q13133 209-447 limits assumed): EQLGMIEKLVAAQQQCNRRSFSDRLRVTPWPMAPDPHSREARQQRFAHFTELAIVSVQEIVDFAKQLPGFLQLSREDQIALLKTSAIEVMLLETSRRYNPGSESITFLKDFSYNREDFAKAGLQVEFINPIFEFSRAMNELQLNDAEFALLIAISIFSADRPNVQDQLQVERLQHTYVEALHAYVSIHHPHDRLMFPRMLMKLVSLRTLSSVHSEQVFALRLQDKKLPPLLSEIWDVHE
As to the kind of experiment: LanthaScreen TR-FRET coactivator recruitment, purified LBD (EC80 measured in this assay). It is filed as binding.

Experiment [2] addresses T1, LXRα. As to the kind of experiment: LanthaScreen TR-FRET coactivator recruitment, agonist and antagonist modes, purified LBD; supported by GAL4-LBD reporter. Format: biochemical.
For a further experiment, the target named is T2, PPARγ (Homo sapiens, UniProt P37231).
T2 construct: gene PPARG; GAL4(1–147)-PPARγ LBD fusion
T2 sequence (P37231 231-505 limits assumed): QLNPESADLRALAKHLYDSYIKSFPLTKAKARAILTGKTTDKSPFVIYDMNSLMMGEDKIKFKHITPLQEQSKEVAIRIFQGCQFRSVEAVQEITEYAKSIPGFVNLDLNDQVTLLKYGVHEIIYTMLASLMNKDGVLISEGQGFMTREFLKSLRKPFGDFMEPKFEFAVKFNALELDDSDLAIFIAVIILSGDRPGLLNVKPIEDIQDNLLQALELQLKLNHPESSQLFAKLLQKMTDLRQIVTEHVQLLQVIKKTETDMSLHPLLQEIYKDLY
The experiment in a line: GAL4-PPARγ LBD luciferase reporter in HG5LN (HeLa) cells. Format: cell-based. The settings on record: read-out: % activation at 80 μM.

For experiment [3], the target named is recombinant LXRα ligand-binding domain, GST-tagged. As to the kind of experiment: FRET or BRET; LanthaScreen TR-FRET coactivator assay, cell-free, agonist mode: GST-LXRα LBD labelled by terbium anti-GST antibody, fluorescein Trap220 peptide, increasing naringenin; percent activation compared to maximal activation of positive control (TO901317).
Experiment [4] shares this target. The experiment in a line: FRET or BRET; LanthaScreen TR-FRET coactivator assay, cell-free, antagonist mode: GST-LXRα LBD, fluorescein Trap220 peptide, TO901317 at its EC80 in all wells (250 nM by methods and legend, 1 µM by the results text), increasing naringenin.

`O=S(=O)(c1ccccc1)N(CC(F)(F)F)c1ccc(C(O)(C(F)(F)F)C(F)(F)F)cc1` [TO901317]: the “LanthaScreen TR-FRET coactivator recruitment, purified LBD (EC80 measured in thi)” value on LXRα [1] turned out to be 250 nM.

Turning to `O=C1C[C@@H](c2ccc(O)cc2)Oc2cc(O)cc(O)c21` [naringenin], on LXRα [2], the “% activation” value was 38.0±2.8 % activation. The Emax at 80 µM on PPARγ turned out to be 57 ± 0.3%.

Regarding “fluorescein-labeled Trap 220/Drip-2 co-activator peptide”, the percent activation of TR-FRET signal with naringenin, relative to TO901317 in experiment [3] turned out to be 38%. Further, in experiment [4], the percent inhibition of binding by 133 µM naringenin in the presence of 1 µM TO901317 stood at 11.6% and the percent inhibition of the TR-FRET signal by 133 µM naringenin with 250 nM TO901317 was found to be 15%.
